Measured values taken from patent publication US20200148646A1, “6-S[…] 7-S[…] ANALOGS AND THE USE THEREOF” (Purdue Pharma, L.P., priority 2013, published 2020).

How the values were obtained:
human κ opioid receptor [1] = target: T1, human κ opioid receptor (Homo sapiens, UniProt P41145); assay: κ-opioid receptor radioligand ([3H]-U69,593) dose-displacement binding assay, HEK-293 or CHO cells; design: expressed in transfected cells; host or cells: HEK-293 cells (in-house prep)
Experimental: Membranes from recombinant HEK-293 cells expressing the human K opioid receptor (cloned in house) were prepared by lysing cells in ice cold hypotonic buffer (2.5 mM MgCl2, 50 mM HEPES, pH 7.4) (10 mL/10 cm dish) followed by homogenization with a tissue grinder/Teflon pestle. Membranes were collected by centrifugation at 30,000×g for 15 min at 4° C. and pellets were resuspended in hypotonic buffer to a final concentration of 1-3 mg/mL. Protein concentrations were determined using the BioRad protein assay reagent with bovine serum albumen as standard. Aliquots of κ receptor membranes were stored at −80° C.
Radioligand dose displacement assays used 0.4 nM [^3H]-U69,593 (GE Healthcare, Piscataway, N.J.; 40 Ci/mmole) with 15 μg membrane protein (recombinant K opioid receptor expressed in HEK 293 cells; in-house prep) in a final volume of 200 μl binding buffer (5% DMSO, 50 mM Trizma base, pH 7.4). Non-specific binding was determined in the presence of 10 μM unlabeled naloxone or U69,593. All reactions were performed in 96-well polypropylene plates for 1 hr at a temperature of about 25° C. Binding reactions were terminated by rapid filtration onto 96-well Unifilter GF/C filter plates (Perkin Elmer, Shelton, Conn.) presoaked in 0.5% polyethylenimine (Sigma). Harvesting was performed using a 96-well tissue harvester (Perkin Elmer, Shelton, Conn.) followed by five filtration washes with 200 μl ice-cold binding buffer. Filter plates were subsequently dried at 50° C. for 1-2 hours. Fifty μl/well scintillation cocktail (Perkin Elmer, Shelton, Conn.) was added and plates were counted in a Packard Top-Count for 1 min/well.
(§1) In TABLE 1, binding affinity of certain Compounds of the Invention to the μ-, and κ-opioid receptors in HEK-293 or CHO cells was determined as described above.

μ-opioid receptor [2] = target: T2, μ-opioid receptor (Homo sapiens, UniProt P35372); assay: μ-opioid receptor [35S]GTPγS functional assay, HEK-293 or CHO cells; type: biochemical; conditions: for Emax: HEK-293 or CHO cells, relative to DAMGO
T2 sequence (P35372 whole entry, species assumed): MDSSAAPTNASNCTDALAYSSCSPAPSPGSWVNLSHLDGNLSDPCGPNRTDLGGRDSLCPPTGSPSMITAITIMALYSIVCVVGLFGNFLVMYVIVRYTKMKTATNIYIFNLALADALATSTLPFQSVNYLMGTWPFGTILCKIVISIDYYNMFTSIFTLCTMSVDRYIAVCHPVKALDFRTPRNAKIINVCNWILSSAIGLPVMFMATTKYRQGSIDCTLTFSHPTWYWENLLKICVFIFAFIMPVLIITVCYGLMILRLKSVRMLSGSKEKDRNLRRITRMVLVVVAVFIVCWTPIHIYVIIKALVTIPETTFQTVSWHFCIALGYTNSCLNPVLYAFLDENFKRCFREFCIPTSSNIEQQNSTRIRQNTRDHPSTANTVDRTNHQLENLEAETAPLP
In short: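 Agonist-stimulated [35S]GTPγS binding to recombinant μ-receptor membranes (HEK-293 or CHO) with 0.20 nM [35S]GTPγS, […] and saponin, pH 7.4, 30 min at about 25 °C, then filtration and scintillation counting. EC50 from sigmoidal fits; Emax relative to DAMGO.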

μ-opioid receptor [3] = target: T2, μ-opioid receptor; assay: μ-opioid receptor radioligand ([3H]-diprenorphine) dose-displacement binding assay, HEK-293 or CHO cells
Experimental: Radioligand dose-displacement binding assays for μ-opioid receptors used 0.3 nM [^3H]-diprenorphine (Perkin Elmer, Shelton, Conn.), with […] membrane protein/well in a final volume of 500 μl binding buffer (10 mM MgCl2, 1 mM EDTA, 5% DMSO, 50 mM HEPES, pH 7.4). Reactions were carried out in the absence or presence of increasing concentrations of unlabeled naloxone. All reactions were conducted in 96-deep well polypropylene plates for 2 hr at room temperature. Binding reactions were terminated by rapid filtration onto 96-well Unifilter GF/C filter plates (Perkin Elmer, Shelton, Conn.), presoaked in 0.5% polyethylenimine using a 96-well tissue harvester (Perkin Elmer, Shelton, Conn.) followed by performing three filtration washes with 500 μl of ice-cold binding buffer. Filter plates were subsequently dried at 50° C. for 2-3 hours. BetaScint scintillation cocktail (Perkin Elmer, Shelton, Conn.) was added (50 l/well), and plates were counted using a Packard Top-Count for 1 min/well. The data were analyzed using the one-site competition curve fitting functions in GraphPad PRISM™ v. 3.0 or higher (San Diego, Calif.), or an in-house function for one-site competition curve-fitting.
as §1

human κ opioid receptor [4] = target: T1, human κ opioid receptor; assay: κ-opioid receptor [35S]GTPγS functional assay, HEK-293 or CHO cells; type: biochemical; design: expressed in transfected cells; conditions: for Emax: HEK-293 or CHO cells, relative to U69,593
Experimental: Membranes from recombinant HEK-293 cells, CHO or U-2 OS cells expressing the recombinant human K opioid receptor (K) were prepared by lysing cells in ice cold hypotonic buffer (2.5 mM MgCl2, 50 mM HEPES, pH 7.4) (10 mL/10 cm dish) followed by homogenization with a tissue grinder/Teflon pestle. Functional [^35S]GTPγS binding assays were conducted as follows. K opioid receptor membrane solution was prepared by sequentially adding final concentrations of 0.026 μg/μl κ membrane protein (in-house), 10 μg/mL saponin, 3 μM GDP and 0.20 nM [^35S]GTPγS to binding buffer (100 mM NaCl, 10 mM MgCl2, 20 mM HEPES, pH 7.4) on ice. The prepared membrane solution (190 μl/well) was transferred to 96-shallow well polypropylene plates containing 10 μl of 20× concentrated stock solutions of agonist prepared in DMSO. Plates were incubated for 30 min at a temperature of about 25° C. with shaking. Reactions were terminated by rapid filtration onto 96-well Unifilter GF/B filter plates (Perkin Elmer, Shelton, Conn.) using a 96-well tissue harvester (Packard) and followed by three filtration washes with 200 μl ice-cold binding buffer (10 mM NaH2PO4, 10 mM Na2HPO4, pH 7.4). Filter plates were subsequently dried at 50° C. for 2-3 hours. Fifty μl/well scintillation cocktail (Perkin Elmer, Shelton, Conn.) was added and plates were counted in a Packard Top-Count for 1 min/well.
κ GTP EC50 is the concentration of a compound providing 50% of the maximal response for the compound at a κ receptor.
κ GTP Emax (%) is the maximal effect elicited by a compound relative to the effect elicited by U69,593.
In TABLE 2, activity response of certain Compounds of the Invention at the μ- and κ-opioid receptors using HEK-293 or CHO cells was determined as described above for functional assays.

μ-opioid receptor [5] = target: T2, μ-opioid receptor; assay: μ-opioid receptor [35S]GTPγS functional assay, U-2 OS cells; type: biochemical; design: host or cells: U-2 OS cells; conditions: for Emax: U2-OS cells, relative to DAMGO
In short: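 U-2 OS membranes expressing recombinant human μ-receptor (0.026 mg/mL) were incubated with compound, […], saponin and [35S]GTPγS 0.20 nM in HEPES/NaCl/MgCl2 buffer pH 7.4 for 30 min at about 25° C. Filter-bound radioactivity gave sigmoidal fits for EC50; Emax is relative to DAMGO.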

human κ opioid receptor [6] = target: T1, human κ opioid receptor; assay: κ-opioid receptor [35S]GTPγS functional assay, U-2 OS cells; type: biochemical; design: expressed in transfected cells; host or cells: U-2 OS cells (in-house membranes); conditions: for Emax: U2-OS cells, relative to U69,593
In short: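 Membranes from U-2 OS cells expressing human κ receptor (0.026 μg/μl protein) were incubated with agonist, 10 μg/mL saponin, 3 μM GDP and 0.20 nM [35S]GTPγS in pH 7.4 HEPES buffer for 30 min at about 25 °C. Bound radioactivity was measured after filtration. EC50 was taken at half-maximal response; Emax is relative to U69,593.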

T1 sequence (P41145 whole entry): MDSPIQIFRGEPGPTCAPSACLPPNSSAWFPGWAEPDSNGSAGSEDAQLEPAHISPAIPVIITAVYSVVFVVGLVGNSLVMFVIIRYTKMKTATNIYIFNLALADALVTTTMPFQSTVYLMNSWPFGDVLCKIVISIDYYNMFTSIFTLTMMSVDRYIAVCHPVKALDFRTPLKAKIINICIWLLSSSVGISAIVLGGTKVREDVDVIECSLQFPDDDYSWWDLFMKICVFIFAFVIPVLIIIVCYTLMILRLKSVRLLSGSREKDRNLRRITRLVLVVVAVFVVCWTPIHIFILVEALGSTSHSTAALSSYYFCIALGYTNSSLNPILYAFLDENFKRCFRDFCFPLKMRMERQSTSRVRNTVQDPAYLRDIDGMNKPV

Row | SMILES | Ki (human κ opioid receptor [1]) | EC50 (μ-opioid receptor [2]) | Emax (μ-opioid receptor [2]) | Ki (μ-opioid receptor [3]) | EC50 (human κ opioid receptor [4]) | Emax (human κ opioid receptor [4]) | EC50 (μ-opioid receptor [5]) | Emax (μ-opioid receptor [5]) | EC50 (human κ opioid receptor [6]) | Emax (human κ opioid receptor [6])
1 | COc1ccc2c(c1)[C@]13CCN(CC4CC4)[C@H](C2)[C@]1(O)CC[C@H](O)C3 [Compound 4, (4bR,6S,8aS,9R)-11-(cyclopropylmethyl)-3-methoxy-5,6,7,8,9,10-hexahydro-8aH-9,4b-(epiminoethano)phenanthrene-6,8a-diol] | 172 ± 12.8 nM | 6140 nM | 33.7 ± 2.96% | 4590 ± 356 nM | 7860 nM | 55.8 ± 5.88% |  |  |  | 
2 | COc1ccc2c(c1)[C@]13CCN(CC4CC4)[C@H](C2)[C@]1(O)CC[C@@H](CC(=O)O)C3 [Compound 9, 2-((4bS,6R,8aS,9R)-11-(cyclopropylmethyl)-8a-hydroxy-3-methoxy-6,7,8,8a,9,10-hexahydro-5H-9,4b-(epiminoethano)phenanthren-6-yl)acetic acid] | 597 ± 163 nM |  |  |  | 597 ± 163 nM |  | 574 ± 87.2 nM | 36.3 ± 0.88% |  | 
3 | CC(C)CN[C@@H]1C[C@@]2(O)[C@H]3Cc4ccc(O)cc4[C@@]2(CCN3CC2CC2)C[C@@H]1O [Compound 34, (4bR,6S,7R,8aS,9R)-11-(cyclopropylmethyl)-7-(isobutylamino)-5,6,7,8,9,10-hexahydro-8aH-9,4b-(epiminoethano)phenanthrene-3,6,8a-triol] |  | > 20000 nM | 1% |  | 0.55 ± 0.23 nM | 32 ± 1.35% | 3.84 ± 1.53 nM | 20.3 ± 1.76% | 0.81 ± 0.12 nM | 71 ± 1.53%
4 | CC(C)C(=O)N[C@H]1C[C@@]2(O)[C@H]3Cc4ccc(O)cc4[C@@]2(CCN3CC2CC2)CC1O (stereo partly drawn) [Compound 50, N-((4bR,7S,8aS,9R)-11-(cyclopropylmethyl)-3,6,8a-trihydroxy-6,7,8,8a,9,10-hexahydro-5H-9,4b-(epiminoethano)phenanthren-7-yl)isobutyramide] |  | > 20000 nM | 1% |  | 29.2 ± 2.21 nM | 45.7 ± 2.19% | 113 ± 60.8 nM | 12.8 ± 0.85% | 47.3 ± 3.7 nM | 91.7 ± 1.33%
5 | CC(=O)N[C@H]1C[C@@]2(O)[C@H]3Cc4ccc(O)cc4[C@@]2(CCN3CC2CC2)C[C@H]1O [Compound 55, N-((4bR,6R,7S,8aS,9R)-11-(cyclopropylmethyl)-3,6,8a-trihydroxy-6,7,8,8a,9,10-hexahydro-5H-9,4b-(epiminoethano)phenanthren-7-yl)acetamide] | 54.8 ± 8.83 nM | > 20000 nM | 1% | 201 ± 62.1 nM | 203 ± 20.2 nM | 13.3 ± 0.88% | > 20000 nM | 4% | 194 ± 54.4 nM | 77.7 ± 5.49%
6 | CCC(=O)N[C@H]1C[C@@]2(O)[C@H]3Cc4ccc(O)cc4[C@@]2(CCN3CC2CC2)C[C@H]1O [Compound 56, N-((4bR,6R,7S,8aS,9R)-11-(cyclopropylmethyl)-3,6,8a-trihydroxy-6,7,8,8a,9,10-hexahydro-5H-9,4b-(epiminoethano)phenanthren-7-yl)propionamide] | 7.19 ± 0.87 nM | > 20000 nM | 1% | 54.2 ± 12.5 nM | 71.8 ± 8.76 nM | 53 ± 0.58% | 95 ± 16.4 nM | 19.3 ± 1.45% | 29.3 ± 4.34 nM | 105 ± 3.38%
7 | CCC(=O)N[C@H]1C[C@@]2(O)[C@H]3Cc4ccc(O)cc4[C@@]2(CCN3CC2CC2)C[C@@H]1O [Compound 57, N-((4bR,6S,7S,8aS,9R)-11-(cyclopropylmethyl)-3,6,8a-trihydroxy-6,7,8,8a,9,10-hexahydro-5H-9,4b-(epiminoethano)phenanthren-7-yl)propionamide] | 16.7 ± 2.61 nM | > 20000 nM | 1.5% | 44.9 ± 7.71 nM | 26.1 ± 6.87 nM | 37.2 ± 3.07% | 77.7 ± 10.3 nM | 9 ± 0.58% | 33.1 ± 3.53 nM | 113 ± 5.86%
8 | CC(C)CCCC(=O)N[C@H]1C[C@@]2(O)[C@H]3Cc4ccc(O)cc4[C@@]2(CCN3CC2CC2)CC1O (stereo partly drawn) [Compound 63, N-((4bR,7S,8aS,9R)-11-(cyclopropylmethyl)-3,6,8a-trihydroxy-6,7,8,8a,9,10-hexahydro-5H-9,4b-(epiminoethano)phenanthren-7-yl)-5-methylhexanamide] | 11.5 ± 0.97 nM | 81.2 ± 8.25 nM | 23.3 ± 1.33% |  | 23 ± 4.32 nM | 21.2 ± 0.44% | 63.2 ± 8.31 nM | 58.7 ± 1.33% | 38.8 ± 7.82 nM | 84.3 ± 1.67%
